In patent publication US10829520B2, “Beta-hairpin peptidomimetics” (POLYPHOR AG, priority 2015, dated 2020):
Read-outs that look alike come from different tables or passages of the source. *1 amine or outer side, *2 acyl side, *3 side chain or, on linkers, in order; H or OH if unused. Where a SMILES comes first, the peptide text is derived from it. Bridges are numbered along the chain shown (N, C = ends). Roman numbers before positions name the chains, in order. [ ]: non-standard residue; d: D form. The star is where a group is joined. NαAmidinoTrp = N=C(N)N[C@@H](Cc1c[nH]c2ccccc12)C(=O)*; X3 = CNCC[C@H](N[*:1])C(=O)[*:2]; Pen = CC(C)(S)[C@H](N)C(=O)O; Tle = CC(C)(C)[C@H](N)C(=O)O; dNle = CCCC[C@@H](N)C(=O)O; dDab = NCC[C@@H](N)C(=O)O; Nle = CCCC[C@H](N)C(=O)O; Orn = NCCC[C@H](N)C(=O)O; Dab = NCC[C@H](N)C(=O)O; Sar = CNCC(=O)O

Tests used:
Assay type in all cases: cell-based
[1] = test system: human red blood cells (hRBC); assay: Hemolysis of human red blood cells; conditions: red cells of human, 1 h
Method: (§1) Lyophilized peptides were weighed on a Microbalance (Mettler MT5) and dissolved in sterile water to a final concentration of 1 mg/mL. Stock solutions were kept at +4° C., light protected.
The peptides were tested for their hemolytic activity against human red blood cells (hRBC). Fresh hRBC were washed three times with phosphate buffered saline (PBS) and centrifuged for 10 min at 2000×g. Compounds (100 μg/mL) were incubated with 20% hRBC (v/v) for 1 h at 37° C. and shaking at 300 rpm. The final erythrocyte concentration was approximately 0.9×10^9 cells/mL. A value of 0% and 100% cell lyses, respectively, was determined by incubation of hRBC in the presence of PBS containing 0.001% acetic acid and 2.5% Triton X-100 in H2O, respectively. The samples were centrifuged, the supernatants were 8-fold diluted in PBS buffer and the optical densities (OD) were measured at 540 nm. The 100% lyses value (OD540H2O) gave an OD540 of approximately 0.5-1.0.
Percent hemolysis was calculated as follows: (OD540peptide/OD540H2O)×100%.

[2] = test system: Escherichia coli ATCC 25922; conditions: ATCC 25922
Method: as §1
(§2) The in vitro antimicrobial activities of the peptides were determined in 96-well plates (Greiner, polystyrene) by the standard CLSI broth microdilution method (Clinical and Laboratory Standards Institute 2014. Performance standards for antimicrobial susceptibility testing, 24th informational supplement. Approved standard CLSI M100-S24; Clinical and Laboratory Standards Institute, Wayne, Pa.). Inocula of the microorganisms were diluted into Mueller-Hinton II (MH-cation adjusted) broth and compared with a 0.5 McFarland standard to give appr. 10^6 colony forming units (CFU)/mL. Aliquots (90 μL) of inoculate were added to 10 μL of MH-II broth+P-80 (Polysorbate 80, 0.002% final concentration, v/v) containing the peptide in serial two-fold dilutions. The following microorganisms were used to determine antibiotic activity of the peptides: Escherichia coli ATCC 25922, Klebsiella pneumoniae SSI #3010^a), Acinetobacter baumannii DSM 30008, Pseudomonas aeruginosa ATCC 27853 and the clinical isolates Escherichia coli 926415^b), Klebsiella pneumoniae 968733^b) and Acinetobacter baumannii 872842^b). Antimicrobial activities of the peptides were expressed as the minimal inhibitory concentration (MIC) in μg/mL at which no visible growth was observed after 18-20 hours of incubation at 35° C. ^a) Obtained from Statens Serum Institut (SSI), Copenhagen, Denmark^b) Obtained from International Health Management Associates, Inc. (IHMA Europe Sàrl), Epalinges, Switzerland

[3] = test system: Pseudomonas aeruginosa ATCC 27853; conditions: ATCC 27853
Method: as §1, §2

[4] = test system: Acinetobacter baumannii DSM 30008; conditions: DSM 30008
Method: as §1, §2

[5] = test system: Klebsiella pneumoniae SSI #3010; conditions: SSI #3010
Method: as §1, §2

Escherichia coli 926415 = conditions: clinical isolate, Mueller-Hinton II broth
Method: as §1, §2

[6] = test system: Acinetobacter baumannii 872842; conditions: clinical isolate, Mueller-Hinton II broth
Method: as §1, §2

[7] = test system: Klebsiella pneumoniae 968733; conditions: clinical isolate, Mueller-Hinton II broth
Method: as §1, §2

Row | Compound | Hemolysis at 100 μg/mL ([1]; 100 μg/mL) [%] | Escherichia coli ATCC 25922 MIC [2] [µg/mL] | Pseudomonas aeruginosa ATCC 27853 MIC [3] [µg/mL] | Acinetobacter baumannii DSM 30008 MIC [4] [µg/mL] | Klebsiella pneumoniae SSI #3010 MIC [5] [µg/mL] | Hemolysis at 100 μg/mL [1]; 100 [%] | Escherichia coli 926415 MIC (Escherichia coli 926415; P-80 0.002% present) [µg/mL] | Escherichia coli 926415 MIC (Escherichia coli 926415; measured in absence of P-80) [µg/mL] | Acinetobacter baumannii 872842 MIC ([6]; P-80 0.002% present) [µg/mL] | Acinetobacter baumannii 872842 MIC ([6]; measured in absence of P-80) [µg/mL] | Klebsiella pneumoniae 968733 MIC ([7]; P-80 0.002% present) [µg/mL] | Klebsiella pneumoniae 968733 MIC ([7]; measured in absence of P-80) [µg/mL]
1 | CC(C)C[C@@H]1NC(=O)[C@@H](CC(C)C)NC(=O)[C@H](CCN)NC(=O)[C@@H](NC(=O)[C@@H](CCN)NC(=O)[C@@H]2CSSC[C@H](N)C(=O)N[C@@H](Cc3c[nH]c4ccccc34)C(=O)N[C@@H](CCN)C(=O)N[C@@H](C(C)(C)C)C(=O)N[C@@H](C)C(=O)N[C@@H](CO)C(=O)N3CCC[C@@H]3C(=O)N3CCC[C@H]3C(=O)N[C@@H](CC(C)C)C(=O)N[C@@H](CO)C(=O)N[C@@H](Cc3ccc(O)cc3)C(=O)N[C@@H](CCN)C(=O)N(C)CC(=O)N2)CCNC(=O)[C@H]([C@@H](C)O)NC(=O)[C@H](CCN)NC(=O)[C@H](CCN)NC1=O [Ex. 206] (H-CW[Dab][Tle]AS[dP]PLSY[Dab][Sar]C[dDab][Dab][Dab][dL]L[Dab][Dab]T; disulfide 1-14; lactam 16-C) | 1 | 0.5 | 4 | 4 | 1 | – | – | – | – | – | – | –
2 | CC(C)C[C@@H]1NC(=O)[C@@H](CC(C)C)NC(=O)[C@H](CCN)NC(=O)[C@@H](NC(=O)[C@H](CCN)NC(=O)[C@@H](NC(=O)[C@H](CCN)NC(=O)CNC(=O)[C@H]2NC(=O)[C@H](Cc3ccc(O)cc3)NC(=O)[C@H](CO)NC(=O)[C@H](CC(C)C)NC(=O)[C@@H]3CCCN3C(=O)[C@H]3CCCN3C(=O)[C@H](CO)NC(=O)[C@H](C)NC(=O)[C@H](C(C)C)NC(=O)[C@@H](NC(=O)[C@H](Cc3c[nH]c4ccccc34)NC(=N)N)C(C)(C)SSC2(C)C)[C@@H](C)O)CCNC(=O)[C@H]([C@@H](C)O)NC(=O)[C@H](CCN)NC(=O)[C@H](CCN)NC1=O [Ex. 174] (NαAmidinoTrp-[Pen]VAS[dP]PLSY[Pen]G[Dab]T[Dab][Dab][Dab][dL]L[Dab][Dab]T; disulfide 1-10; lactam 15-C) | 1 | 0.25 | 2 | 0.5 | 0.5 | – | – | – | – | – | – | –
3 | CC(C)C[C@@H]1NC(=O)[C@@H](CC(C)C)NC(=O)[C@H](CCN)NC(=O)[C@@H](NC(=O)[C@H](CCN)NC(=O)[C@@H](NC(=O)[C@H](CCN)NC(=O)CN(C)C(=O)[C@@H]2CSSC[C@H](NC(=O)[C@@H](N)Cc3c[nH]c4ccccc34)C(=O)N[C@@H](C(C)C)C(=O)N[C@@H](C)C(=O)N[C@@H](CO)C(=O)N3CCC[C@@H]3C(=O)N3CCC[C@H]3C(=O)N[C@@H](CC(C)C)C(=O)N[C@@H](CO)C(=O)N[C@@H](Cc3ccc(O)cc3)C(=O)N2)[C@@H](C)O)CCNC(=O)[C@@H](C(C)C)NC(=O)[C@H](CCN)NC(=O)[C@H](CCN)NC1=O [Ex. 180] (H-WCVAS[dP]PLSYC[Sar][Dab]T[Dab][Dab][Dab][dL]L[Dab][Dab][dV]; disulfide 2-11; lactam 16-C) | <1 | 0.125 | 1 | 0.25 | 0.125 | – | – | – | – | – | – | –
4 | CCCC[C@@H]1NC(=O)[C@@H]2CCCN2C(=O)[C@H]2CCCN2C(=O)[C@H](CO)NC(=O)[C@H](C)NC(=O)[C@H](C(C)(C)C)NC(=O)[C@H](CCN)NC(=O)[C@H](Cc2c[nH]c3ccccc23)NC(=O)[C@H](CCN)NC(=O)[C@@H](CCN)NC(=O)[C@H](CCC(=O)N[C@@H](CCNC)C(=O)N[C@H]2CCNC(=O)[C@H]([C@@H](C)O)NC(=O)[C@H](CCN)NC(=O)[C@H](CCN)NC(=O)[C@H](CC(C)C)NC(=O)[C@@H](Cc3ccccc3)NC(=O)[C@H](CCN)NC2=O)NC(=O)[C@H](CCN)NC(=O)[C@H](Cc2ccc(O)cc2)NC(=O)[C@H](CO)NC1=O [Ex. 68] (I: cyclo(W[Dab][Tle]AS[dP]P[Nle]SY[Dab]E[dDab][Dab]) / II: [X3][Dab][Dab][dF]L[Dab][Dab]T; amide I:12-II:N; lactam II:2-II:C) | – | 2 | 0.5 | 2 | 2 | <1 | – | – | – | – | – | –
5 | CCCC[C@@H]1NC(=O)[C@@H]2CCCN2C(=O)[C@H]2CCCN2C(=O)[C@H](CO)NC(=O)[C@H](C)NC(=O)[C@H](C(C)(C)C)NC(=O)[C@@H](NC(=O)[C@@H](N)Cc2c[nH]c3ccccc23)CSSC[C@@H](C(=O)N[C@@H](CCCN)C(=O)N[C@@H](CCN)C(=O)N[C@H]2CCNC(=O)[C@H]([C@@H](C)O)NC(=O)[C@H](CCN)NC(=O)[C@H](CCN)NC(=O)[C@H](CC(C)C)NC(=O)[C@@H](CCCC)NC(=O)[C@H](CCN)NC2=O)NC(=O)[C@H](Cc2ccc(O)cc2)NC(=O)[C@H](CO)NC1=O [Ex. 192] (H-WC[Tle]AS[dP]P[Nle]SYC[Orn][Dab][Dab][Dab][dNle]L[Dab][Dab]T; disulfide 2-11; lactam 14-C) | 5 | 0.25 | 2 | 0.25 | 0.25 | – | – | – | – | – | – | –
6 | CCCC[C@@H]1NC(=O)[C@@H]2CCCN2C(=O)[C@H]2CCCN2C(=O)[C@H](CO)NC(=O)[C@H](C)NC(=O)[C@H](C(C)(C)C)NC(=O)[C@@H](NC(=O)[C@@H](N)Cc2c[nH]c3ccccc23)CCNC(=O)C[C@@H](C(=O)N[C@@H](CCCN)C(=O)N[C@@H](CCN)C(=O)N[C@H]2CCNC(=O)[C@H]([C@@H](C)O)NC(=O)[C@H](CCN)NC(=O)[C@H](CCN)NC(=O)[C@H](CC(C)C)NC(=O)[C@@H](Cc3ccccc3)NC(=O)[C@H](CCN)NC2=O)NC(=O)[C@H](Cc2ccc(O)cc2)NC(=O)[C@H](CO)NC1=O [Ex. 190] (H-W[Dab][Tle]AS[dP]P[Nle]SYD[Orn][Dab][Dab][Dab][dF]L[Dab][Dab]T; lactam 2-11, 14-C) | – | 0.5 | 1 | 0.5 | 0.5 | <1 | – | – | – | – | – | –
7 | colistin [reference compound] | – | – | – | – | – | – | 8 | 16 | >8 | 64 | >8 | 16
8 | CC(C)C[C@@H]1NC(=O)[C@@H](CC(C)C)NC(=O)[C@H](CCN)NC(=O)[C@@H](NC(=O)[C@H](CCN)NC(=O)[C@@H](NC(=O)[C@H](CCN)NC(=O)CNC(=O)[C@H](CCN)NC(=O)[C@H](Cc2ccc(O)cc2)NC(=O)[C@@H]2CSSC[C@H](NC(=O)[C@H](Cc3ccc(O)cc3)NC(=O)[C@H](CCN)NC(=O)[C@@H](N)Cc3c[nH]c4ccccc34)C(=O)N[C@@H](CO)C(=O)N3CCC[C@@H]3C(=O)N3CCC[C@H]3C(=O)N[C@@H](CC(C)C)C(=O)N2)[C@@H](C)O)CCNC(=O)[C@H]([C@@H](C)O)NC(=O)[C@H](CCN)NC(=O)[C@H](CCN)NC1=O [Ex. 165] (H-W[Dab]YCS[dP]PLCY[Dab]G[Dab]T[Dab][Dab][Dab][dL]L[Dab][Dab]T; disulfide 4-9; lactam 16-C) | 1 | 0.5 | 1 | 2 | 1 | – | – | – | – | – | – | –
